The results in this text go back to ChEMBL document CHEMBL1201862, “PubChem BioAssay data set” (2004).

SMILES strings stand for the structures. Activity calls are given as the source filed them. Bounds are passed on as bounds.

Assay [1] concerns the target DNA damage-inducible transcript 3 protein (Mus musculus, UniProt P35639). The assay is classed as functional, Cricetulus griseus.
For a further assay, the system named is CHO. Description: CHO cell viability loss, potency – luminescence, cytotoxicity control for TLR9-MyD88 binding inhibitor project, dose response (AID 588339).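 Note: CHO cells stably coexpressing TLR9 and MyD88 fusions from primary screen; compound exposure lasted 48 hours before viability readout.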 The assay is classed as functional, cell-based, hamster. To be noted: Cricetulus griseus.
Assay [2] concerns the target T1, High affinity choline transporter 1 (Homo sapiens, UniProt Q9GZV3).
T1 sequence (Q9GZV3 whole entry): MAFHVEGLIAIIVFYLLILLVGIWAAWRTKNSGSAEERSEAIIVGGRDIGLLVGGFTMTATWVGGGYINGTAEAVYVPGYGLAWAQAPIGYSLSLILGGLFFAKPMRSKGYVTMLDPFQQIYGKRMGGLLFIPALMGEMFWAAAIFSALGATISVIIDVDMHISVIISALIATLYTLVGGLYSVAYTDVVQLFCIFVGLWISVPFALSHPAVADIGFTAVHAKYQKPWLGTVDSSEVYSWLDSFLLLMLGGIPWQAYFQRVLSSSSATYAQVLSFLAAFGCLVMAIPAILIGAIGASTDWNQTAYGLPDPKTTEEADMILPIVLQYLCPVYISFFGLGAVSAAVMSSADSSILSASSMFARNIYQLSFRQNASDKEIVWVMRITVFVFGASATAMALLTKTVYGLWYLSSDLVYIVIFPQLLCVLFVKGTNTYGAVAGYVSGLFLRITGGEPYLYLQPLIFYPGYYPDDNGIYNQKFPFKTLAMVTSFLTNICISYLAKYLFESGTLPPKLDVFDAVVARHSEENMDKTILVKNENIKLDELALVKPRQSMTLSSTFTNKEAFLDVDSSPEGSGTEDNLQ
The assay can be described thus: human choline transporter blockers, potency – cell-based, 5-point CRC, membrane potential dye, dose response (AID 504840). Format: functional.

The next assay addresses Beta Lactamase (Pseudomonas aeruginosa, UniProt Q932Y6). The assay can be described thus: BLA reporter interference, concentration series – BLA reporter cells, FRET fluorescence, artefact control for TLR9-MyD88 binding inhibitor project, dose response (AID 588341).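 Note: cell based assay in CHO-K1 cells stably expressing beta-lactamase.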 Format: cell-based.
The nature of assay [3]: reduction of Shn3 3'UTR-driven luciferase in osteoblasts – cell-based, Clone20 osteoblasts, firefly luciferase, cherry-picked, dose response (AID 624132).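 Note: firefly luciferase luminescence from reporter carrying the Shn3 3'UTR in osteoblasts.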 Format: functional.
Assay [4] is described as follows: loss of viability in HepG2 cells – cell-based, CellTiter-Glo, cherry-picked, cytotoxicity control for Shn3 inhibitor project, dose response (AID 624134). The assay is classed as functional.
Assay [5] is described as follows: non-specific 3'UTR reporter inhibition in Clone20-Shn3RL – cell-based, Renilla luciferase, cherry-picked, counter-screen for Shn3 inhibitor project, dose response (AID 624133). Format: functional. For orientation: The purpose of a counterscreen is to sort out artefacts and off-target activity.
For assay [6], the target named is T2, Delta-type opioid receptor (Homo sapiens, UniProt P41143). Description: HTS Image-Based Screen for Antagonists of the DOR Receptor. [Related pubchem assays (depositor defined):AID1777, AID1785, AID1786, AID2133]. Format: functional.
The target in a further assay is Mu-type opioid receptor (Homo sapiens, UniProt P35372). The assay can be described thus: HTS Image-Based Screen for Agonists of the MOR Receptor. [Related pubchem assays (depositor defined):AID1777, AID1785, AID1786, AID2133]. The assay is classed as functional.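 Note: imaging of beta-arrestin GFP recruitment into spots after receptor activation.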
Assay [7] concerns Streptococcus sp. 'group A'. The assay can be described thus: Streptococcus pyogenes SK(-)GAS viability under kanamycin – luminescence, BacTiterGlo, confirmation, counter-screen for streptokinase expression inhibitor project, dose response (AID 1900). The assay is classed as functional, organism-based.
In assay [8] the target is T2, Delta-type opioid receptor. Description: HTS Image-Based Screen for Agonists of the DOR Receptor. [Related pubchem assays (depositor defined):AID1777, AID1786, AID2133]. The assay is classed as functional.
The target of assay [9] is T3, Kappa-type opioid receptor (Homo sapiens, UniProt P41145). The assay is classed as functional.
A further assay has as its target Beta-galactosidase (Escherichia coli, UniProt Q8VNN2). Format: functional.
Assay [10] addresses T3, Kappa-type opioid receptor. The assay is classed as functional. This is another data set of the same source.
Another assay relates to Streptococcus. Description: GAS UMAA2166 growth inhibition – luminescence, BacTiterGlo, counter-screen for streptokinase expression inhibitor project, dose response (AID 1915).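 Note: potency for reduction of bacterial viability or growth.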 Format: functional, organism-based.
Assay [11] deals with Heat shock protein HSP 90-alpha (Homo sapiens, UniProt P07900). The assay is classed as functional, organism-based.
In another assay the target is HSP90 (Plasmodium falciparum 3D7, UniProt Q8IL32). Format: functional, organism-based.
Assay [12] can be described thus: rise of 2N DNA cells, HeLa – IC50, dose response (AID 1117349). Format: functional, cell-based.
Assay [13] in a line: CellTiter-Glo luminescence survival assay, SW480 colon tumor line, concentration-response curve, half-maximal inhibitory concentration (AID 1117338). Format: functional.
Assay [14] is described as follows: RKO cell viability reduction, dose response, CellTiter-Glo luminescence (AID 1117322). Format: functional. Background: Cellular ATP, detected with luciferase, serves as a proxy for viable cell number.
A short description of assay [15]: cytotoxicity toward HCT116 cells – cell-based, CellTiter-Glo luminescence, IC50, dose response (AID 1117332). Format: functional. To be noted: HCT-116.
The nature of assay [16]: SNU-C1 cell viability reduction, dose response, CellTiter-Glo luminescence (AID 1117323). The assay is classed as functional, cell-based.
The nature of assay [17]: cytotoxicity toward Colo320 cells – cell-based, CellTiter-Glo luminescence, IC50, dose response (AID 1117334). Format: functional. The conditions noted are these: COLO 320.
Assay [18] is described as follows: rise of 4N DNA cells, HeLa – IC50, dose response (AID 1117351). Format: functional, cell-based.
A short description of assay [19]: cytotoxicity toward HT-29 cells – cell-based, CellTiter-Glo luminescence, IC50, dose response (AID 1117330). The assay is classed as functional.
The nature of assay [20]: Reduced DLD-1 viability, concentration-response, CellTiter-Glo luminescence (AID 1117352). The assay is classed as functional.
A short description of assay [21]: HCT116 cell viability decrease, GSK3B pretreatment – CellTiter-Glo, IC50, dose response (AID 1117339). Format: functional. To be noted: HCT-116.

T3 sequence (P41145 whole entry): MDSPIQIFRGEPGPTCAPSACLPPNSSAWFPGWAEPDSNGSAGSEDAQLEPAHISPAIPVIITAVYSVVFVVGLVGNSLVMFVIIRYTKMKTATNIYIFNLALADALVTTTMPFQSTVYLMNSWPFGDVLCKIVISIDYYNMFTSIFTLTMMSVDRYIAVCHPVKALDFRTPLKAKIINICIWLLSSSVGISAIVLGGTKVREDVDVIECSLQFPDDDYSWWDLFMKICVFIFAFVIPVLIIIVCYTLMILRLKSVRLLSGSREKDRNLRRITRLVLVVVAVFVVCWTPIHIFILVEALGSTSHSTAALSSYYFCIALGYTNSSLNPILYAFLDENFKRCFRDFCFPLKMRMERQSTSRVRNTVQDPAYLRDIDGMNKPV
T2 sequence (P41143 whole entry): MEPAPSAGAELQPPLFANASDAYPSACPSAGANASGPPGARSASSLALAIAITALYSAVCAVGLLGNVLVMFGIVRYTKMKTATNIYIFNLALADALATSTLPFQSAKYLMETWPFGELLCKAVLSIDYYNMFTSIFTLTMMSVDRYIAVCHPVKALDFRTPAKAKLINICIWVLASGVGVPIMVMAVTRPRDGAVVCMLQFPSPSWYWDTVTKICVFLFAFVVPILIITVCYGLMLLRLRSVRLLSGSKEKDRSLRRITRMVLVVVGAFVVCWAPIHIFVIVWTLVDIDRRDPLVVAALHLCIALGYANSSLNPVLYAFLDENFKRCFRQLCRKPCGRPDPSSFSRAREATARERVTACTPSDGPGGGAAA
Sequence of Beta Lactamase (Q932Y6 whole entry): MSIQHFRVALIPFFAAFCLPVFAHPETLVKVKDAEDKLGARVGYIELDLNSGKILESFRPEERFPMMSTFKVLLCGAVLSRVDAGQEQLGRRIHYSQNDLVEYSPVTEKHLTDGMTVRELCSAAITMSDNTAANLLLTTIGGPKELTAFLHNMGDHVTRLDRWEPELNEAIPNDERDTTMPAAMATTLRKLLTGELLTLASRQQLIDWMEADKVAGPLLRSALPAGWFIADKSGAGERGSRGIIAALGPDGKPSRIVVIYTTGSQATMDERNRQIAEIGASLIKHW
Sequence of HSP90 (Q8IL32 whole entry): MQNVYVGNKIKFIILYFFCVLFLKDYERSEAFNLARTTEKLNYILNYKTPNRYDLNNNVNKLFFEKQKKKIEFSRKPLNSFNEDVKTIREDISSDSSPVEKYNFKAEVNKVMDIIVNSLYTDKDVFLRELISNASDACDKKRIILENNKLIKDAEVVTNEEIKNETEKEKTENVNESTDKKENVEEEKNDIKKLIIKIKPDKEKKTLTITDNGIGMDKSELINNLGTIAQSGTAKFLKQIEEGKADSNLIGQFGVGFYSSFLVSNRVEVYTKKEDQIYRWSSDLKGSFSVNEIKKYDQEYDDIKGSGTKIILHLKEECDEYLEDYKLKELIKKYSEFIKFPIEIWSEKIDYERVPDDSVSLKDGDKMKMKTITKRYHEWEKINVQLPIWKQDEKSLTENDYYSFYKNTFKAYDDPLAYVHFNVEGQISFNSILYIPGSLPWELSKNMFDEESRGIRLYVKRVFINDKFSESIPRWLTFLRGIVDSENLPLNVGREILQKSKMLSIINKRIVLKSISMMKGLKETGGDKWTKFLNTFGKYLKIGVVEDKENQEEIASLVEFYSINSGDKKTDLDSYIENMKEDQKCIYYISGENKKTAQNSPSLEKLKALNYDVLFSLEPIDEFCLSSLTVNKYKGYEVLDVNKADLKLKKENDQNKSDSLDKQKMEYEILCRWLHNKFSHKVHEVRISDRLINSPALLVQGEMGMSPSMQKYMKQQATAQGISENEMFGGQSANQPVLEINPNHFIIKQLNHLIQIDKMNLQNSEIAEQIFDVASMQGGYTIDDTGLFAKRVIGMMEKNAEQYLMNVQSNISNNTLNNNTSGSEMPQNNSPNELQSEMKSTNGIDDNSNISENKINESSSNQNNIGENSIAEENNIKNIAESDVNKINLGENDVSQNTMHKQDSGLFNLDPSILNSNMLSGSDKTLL
Sequence of Mu-type opioid receptor (P35372 whole entry): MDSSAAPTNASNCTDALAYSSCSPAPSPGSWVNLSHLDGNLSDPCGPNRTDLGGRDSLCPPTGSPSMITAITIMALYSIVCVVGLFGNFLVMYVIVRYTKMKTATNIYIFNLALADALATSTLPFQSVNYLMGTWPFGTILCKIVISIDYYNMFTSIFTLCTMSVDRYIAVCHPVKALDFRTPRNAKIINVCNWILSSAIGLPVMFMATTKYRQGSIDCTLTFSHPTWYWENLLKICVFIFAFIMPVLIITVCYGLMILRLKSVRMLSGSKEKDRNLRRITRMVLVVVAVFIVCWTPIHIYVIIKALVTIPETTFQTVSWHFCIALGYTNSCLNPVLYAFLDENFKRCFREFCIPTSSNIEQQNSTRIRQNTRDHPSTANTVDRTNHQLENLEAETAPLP
Sequence of DNA damage-inducible transcript 3 protein (P35639 whole entry, the tested form may be a part): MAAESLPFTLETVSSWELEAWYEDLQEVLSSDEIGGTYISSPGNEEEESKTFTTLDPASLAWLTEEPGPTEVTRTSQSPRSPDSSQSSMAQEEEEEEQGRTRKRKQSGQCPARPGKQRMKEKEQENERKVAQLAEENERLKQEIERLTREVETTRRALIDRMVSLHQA
Sequence of Beta-galactosidase (Q8VNN2 whole entry): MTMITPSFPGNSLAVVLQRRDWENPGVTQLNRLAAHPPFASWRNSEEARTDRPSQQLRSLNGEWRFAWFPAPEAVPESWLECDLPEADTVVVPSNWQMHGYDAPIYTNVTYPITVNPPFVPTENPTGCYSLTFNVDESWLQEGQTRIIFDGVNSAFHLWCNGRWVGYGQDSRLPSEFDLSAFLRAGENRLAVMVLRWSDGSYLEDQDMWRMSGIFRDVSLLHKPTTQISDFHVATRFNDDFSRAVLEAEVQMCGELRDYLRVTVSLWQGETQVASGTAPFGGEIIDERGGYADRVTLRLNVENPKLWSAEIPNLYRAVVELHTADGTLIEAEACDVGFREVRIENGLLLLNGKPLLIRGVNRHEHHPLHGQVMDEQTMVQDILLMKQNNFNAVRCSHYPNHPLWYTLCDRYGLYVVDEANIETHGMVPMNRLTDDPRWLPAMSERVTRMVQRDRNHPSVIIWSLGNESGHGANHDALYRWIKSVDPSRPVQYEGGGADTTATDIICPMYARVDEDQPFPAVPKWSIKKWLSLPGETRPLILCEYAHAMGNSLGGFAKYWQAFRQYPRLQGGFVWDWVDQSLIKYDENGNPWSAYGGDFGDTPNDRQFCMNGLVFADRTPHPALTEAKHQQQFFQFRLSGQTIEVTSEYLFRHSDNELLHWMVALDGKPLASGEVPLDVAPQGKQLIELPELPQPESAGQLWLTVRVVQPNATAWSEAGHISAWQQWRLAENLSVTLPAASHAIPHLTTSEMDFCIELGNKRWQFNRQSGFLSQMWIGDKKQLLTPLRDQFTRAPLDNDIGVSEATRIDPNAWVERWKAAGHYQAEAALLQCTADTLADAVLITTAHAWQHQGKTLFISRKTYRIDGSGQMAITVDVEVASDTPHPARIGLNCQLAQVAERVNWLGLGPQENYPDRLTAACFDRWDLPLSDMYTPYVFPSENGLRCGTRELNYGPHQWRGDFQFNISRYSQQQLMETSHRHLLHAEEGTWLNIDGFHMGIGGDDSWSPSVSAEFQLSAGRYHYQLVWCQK

As to `CCOC(=O)c1nc(S(C)(=O)=O)ncc1Cl`, in assay [1], the “Absolute IC50 (CHOP)” value was 10 µM. Moreover, the IC50 (in general, the concentration that inhibits the measured activity by half) in the assay with CHO was 5.62 µM (active); in [2], 19.1 µM (active); on Beta Lactamase, 22.4 µM (inactive). For the same compound, the AC50 (as a rule, the midpoint of the concentration-response curve, whichever way the signal moves) is 6.37 µM (active) in assay [3], 35.4 µM (active) in assay [4] and 20.5 µM (active) in assay [5].

As to `Oc1c(Cl)cc(Cl)c2cccnc12` [CHLOROXINE], the IC50 is > 32 µM (inactive) in [6]; 4.56 µM (active) in assay [9]; greater than 32 µM in assay [10]; > 10 µM (inactive) in [12]; 43.8 nM (active) in [13]; 62.7 nM (active) in assay [14]. Moreover, the IC50 in assay [15] is 47.5 nM (active); in [16], 495 nM (active); in assay [17] it was 49.3 nM (active); in assay [18], > 10 µM (inactive); in assay [19], > 20 µM (inactive); in assay [20], 409 nM (active). Moreover, in assay [21], the IC50 is 39.3 nM (active). Also, the EC50 (commonly the concentration giving half of the maximal effect) was > 32 µM (inactive) on Mu-type opioid receptor; 258 nM (active) in assay [7]; > 32 µM (inactive) in [8]; > 31.5 µM (inactive) at Beta-galactosidase; 3.31 µM (active) in the assay on Streptococcus. Also, the half-maximal activity concentration (AC50) in assay [11] was 1.05 µM (active); on HSP90 it was 511 nM (active).
